The values that follow come from PubChem BioAssay (NCI).

Values joined by “and” are separate entries in the source; they are usually repeats but may differ in a detail not shown here. Identical values can stand only once.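 Protocol summary: plate cells (96-well), add compound at 5 concentrations, incubate 48 h, interpolate endpoints linearly. At the GI50, growth is halved. The concentration for full growth arrest is given as TGI.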

Some test systems named below: SF-539 CNS; OVCAR-4 ovarian; T-47D breast; NCI/ADR-RES ovarian; SK-MEL-5 melanoma; CAKI-1 renal; KM12 colon; SNB-19 CNS; UO-31 renal; MOLT-4 leukemia.
Common to all, as to assay: NCI tumour cell line growth inhibition, 48 h

`O=C1C(=O)c2ccccc2C(O)=C1CC=C(Br)Br`: the GI50 was 4.17 µM with SF-539 CNS; 11.7 µM in the test with OVCAR-4 ovarian; 15.4 µM with T-47D breast; 5.33 µM with NCI/ADR-RES ovarian; 1.28 µM in the test on SK-MEL-5 melanoma; 3.38 µM with CAKI-1 renal. Moreover, the GI50 is 3.14 µM in the test with KM12 colon, 4.67 µM in the test on SNB-19 CNS, 6.13 µM with UO-31 renal and 2.83 µM in the test with MOLT-4 leukemia. Besides, the TGI in the test on SF-539 CNS is 47.3 µM; with OVCAR-4 ovarian it was 75.9 µM; in the test on T-47D breast it was 81.2 µM; in the test with NCI/ADR-RES ovarian, 87.3 µM; in the test with SK-MEL-5 melanoma it was 16.6 µM; in the test on CAKI-1 renal it was over 100 µM. The TGI with KM12 colon is 64.9 µM; in the test with SNB-19 CNS, 77.8 µM; in the test with UO-31 renal it was 62.1 µM; in the test on MOLT-4 leukemia it was over 100 µM.
Regarding `CC(C)(C)c1nn(-c2ccccc2)c2c1C(=O)CSC(c1ccccc1Cl)N2` (stereo not given), the GI50 with SF-539 CNS was 2.36 µM; in the test with OVCAR-4 ovarian it was 8.48 µM; with T-47D breast it was 6.1 µM; with NCI/ADR-RES ovarian it was 0.632 µM; with SK-MEL-5 melanoma, 0.966 µM; with CAKI-1 renal, 1.24 µM. In addition, the GI50 was 1.48 µM in the test with KM12 colon, 2.54 µM in the test with SNB-19 CNS, 3.03 µM with UO-31 renal and 3.42 µM in the test on MOLT-4 leukemia. In addition, the TGI was found to be 10.1 µM in the test with SF-539 CNS; 21.9 µM with OVCAR-4 ovarian; 30 µM with T-47D breast; 7.54 µM with NCI/ADR-RES ovarian; 11 µM in the test with SK-MEL-5 melanoma; 22.2 µM in the test with CAKI-1 renal. The TGI was 14.7 µM in the test on KM12 colon, 15.2 µM with SNB-19 CNS, 19.1 µM with UO-31 renal and 16.5 µM with MOLT-4 leukemia.
On to `Cc1c(-c2c(-c3ccc(F)o3)sc3ncnc(O[C@H](Cc4ccccc4OCc4ccnn4CC(F)(F)F)C(=O)O)c23)ccc(OCCN2CCN(C)CC2)c1Cl`, for which the GI50 is 2.89 µM in the test with SF-539 CNS; 4.86 µM with OVCAR-4 ovarian; 5.14 µM in the test with T-47D breast; 15.5 µM with NCI/ADR-RES ovarian; 3.13 µM in the test on SK-MEL-5 melanoma; 6.21 µM in the test with CAKI-1 renal. The GI50 in the test with KM12 colon was 4 µM; with SNB-19 CNS, 4.7 µM; in the test on UO-31 renal it was 6.25 µM; in the test on MOLT-4 leukemia it was 0.108 µM. The TGI in the test on SF-539 CNS came out at 6.27 µM; in the test on OVCAR-4 ovarian, 17.8 µM; with T-47D breast, 16.3 µM; in the test with NCI/ADR-RES ovarian, 33.4 µM; in the test on SK-MEL-5 melanoma, 6.25 µM; in the test with CAKI-1 renal, 19.2 µM. The TGI was determined as 7.99 µM in the test on KM12 colon, 12.9 µM in the test with SNB-19 CNS, 18.6 µM in the test with UO-31 renal and 4.71 µM in the test with MOLT-4 leukemia.
Turning to `O=C(CN1CCN(CCCOc2c(-c3ccccc3)oc3ccccc3c2=O)CC1)Nc1ccc(Cl)cc1C(=O)c1ccccc1Cl`, the GI50 in the test with SF-539 CNS is 6.68 µM; in the test with OVCAR-4 ovarian, 7.48 µM; in the test on T-47D breast it was 6.7 µM; with NCI/ADR-RES ovarian, 5.74 µM; in the test with SK-MEL-5 melanoma, 5.93 µM; with CAKI-1 renal, 12.9 µM. For the same compound, the GI50 was 5.73 µM in the test with KM12 colon, 8.09 µM in the test on SNB-19 CNS, 9.28 µM in the test on UO-31 renal and 3.98 µM in the test with MOLT-4 leukemia. Besides, the TGI in the test with SF-539 CNS was determined as 22.2 µM; in the test on OVCAR-4 ovarian it was 54.8 µM; in the test with T-47D breast it was 33.9 µM; in the test with NCI/ADR-RES ovarian it was 26.4 µM; in the test with SK-MEL-5 melanoma, 25.2 µM; in the test with CAKI-1 renal it was 36.9 µM. For the same compound, the TGI was 29.9 µM in the test on KM12 colon, over 100 µM in the test with SNB-19 CNS, 29.4 µM in the test on UO-31 renal and 66.7 µM in the test on MOLT-4 leukemia.
Consider `CCOC(=O)N1CCc2cc(OC)c(OC)c3c2c1cc1cc(OC)c(OC)cc13`, for which the TGI in the test with SF-539 CNS is 9.17 µM; with OVCAR-4 ovarian it was over 95.3 µM; in the test on T-47D breast, over 60.2 µM; with NCI/ADR-RES ovarian, 5.37 µM; in the test on SK-MEL-5 melanoma, 32.9 µM; with CAKI-1 renal, 84.2 µM. The TGI in the test with KM12 colon is 67.7 µM; with SNB-19 CNS, over 100 µM; in the test with UO-31 renal it was over 100 µM; in the test with MOLT-4 leukemia it was over 100 µM.
Take `COc1ncc(-c2ccc3nccc(-c4ccnnc4)c3c2)cc1NS(=O)(=O)c1ccc(F)cc1F`: the GI50 in the test with SF-539 CNS was 0.00746 µM and < 0.01 µM; in the test on OVCAR-4 ovarian, 0.033 µM and 0.0217 µM; with NCI/ADR-RES ovarian, 0.0228 µM and 0.0246 µM; in the test with SK-MEL-5 melanoma, 0.0237 µM and 0.0154 µM; with CAKI-1 renal, 0.00521 µM and < 0.01 µM; in the test on KM12 colon, 0.033 µM and 0.0302 µM. Besides, the GI50 in the test on SNB-19 CNS was 0.0397 µM and 0.0127 µM; in the test on UO-31 renal, 0.00213 µM and < 0.01 µM; with MOLT-4 leukemia, 0.00505 µM and < 0.01 µM. Also, the TGI is 0.0587 µM and 0.0468 µM in the test with SF-539 CNS; 0.00428 µM in the test with T-47D breast; > 8.81 µM and 4.37 µM in the test with NCI/ADR-RES ovarian; 0.141 µM and 0.0966 µM in the test on SK-MEL-5 melanoma; 0.746 µM and 1.7 µM with CAKI-1 renal; 1.53 µM and 1.58 µM in the test with KM12 colon. Moreover, the TGI with MOLT-4 leukemia was 0.801 µM and 0.579 µM.
`COc1c(OC)c(OC)c2c(c1OC)c(=O)c1ccccc1n2C`: the TGI in the test on SF-539 CNS, in the test with OVCAR-4 ovarian, in the test with T-47D breast, in the test on NCI/ADR-RES ovarian, in the test on SK-MEL-5 melanoma and with CAKI-1 renal was over 100 µM throughout. For the same compound, the TGI in the test on KM12 colon, in the test with SNB-19 CNS, in the test with UO-31 renal and in the test on MOLT-4 leukemia was over 100 µM each time.
With `O=C(/C=C/c1cccnc1)NCCCCC1CCCN(C(=O)c2ccccc2)C1` (stereo not given), the GI50 is under 0.01 µM with SF-539 CNS; over 74 µM with OVCAR-4 ovarian; under 0.01 µM with T-47D breast; 0.0103 µM in the test with NCI/ADR-RES ovarian; under 0.0273 µM in the test with SK-MEL-5 melanoma; 9 µM with CAKI-1 renal. The figures for the GI50 with KM12 colon, in the test with UO-31 renal and in the test on MOLT-4 leukemia were under 0.0357 µM, over 62.8 µM and 23 µM, respectively. For the same compound, the TGI in the test on SF-539 CNS, with OVCAR-4 ovarian, in the test on T-47D breast, in the test with NCI/ADR-RES ovarian, in the test with SK-MEL-5 melanoma and with CAKI-1 renal was over 100 µM in each case. Also, the TGI in the test with KM12 colon, in the test on SNB-19 CNS, in the test on UO-31 renal and with MOLT-4 leukemia was over 100 µM throughout.
